Laboratory results: patent publication US20170216329A1, “Ceramide-Rubusoside Nanomicelles and Their Use in Cancer Therapy” (Board of Supervisors of Louisiana State University and …, priority 2014, published 2017)

Assays:
[1] = test system: wt p53 (phosphorylated-Ser15); conditions: cited from earlier work
[2] = test system: p53, Bax and p21 in the small intestine; assay: p53 restoration in heterozygous p53R172H/+ transgenic mice (small intestine); format: in vivo; conditions: 1 mg/kg, i.p., every 3 days for 6 days; vs. saline
Description: We examined the effects of Cer on restoring wt p53 expression in p53 missense transgenic mice. The experimental animals were heterozygous 129S4-Trp53^tm2.1Tyj transgenic mice, which carry the mutation p53^R172H/+, and have a genetic predisposition to cancer. (Doyle et al., 2010; Olive et al., 2004; Yu et al., 2012) These mice were generously provided by the NCI Mouse Repository (Rockville, Md.). We analyzed the genotypes of offspring by PCR analysis of DNA from blood collected from the tail vein. Heterozygous (HTZ) p53^R172H/+ mice were treated with C6-Cer or C6-Cer-RUB (1 mg/kg, i.p., every 3 days for 6 days).

[3] = test system: A2780 ovarian cancer cells (p53 wild-type); assay: Cell viability after 72 hours, A2780; format: cell-based
[4] = test system: OVCAR3 ovarian cancer cells (p53 R248 missense mutation); assay: Cell viability after 72 hours, OVCAR3; format: cell-based, Human
Experimental: We examined the effect of Ceramide-RUB nanomicelles on p53 restoration in cancer cell models. Human OVCAR3 ovarian cancer cells carry a p53 R248 missense mutation, and are resistant to many anticancer drugs. […] FIG. 3 depicts cell viability (as a percentage of control) after treatment for 72 hours with varying concentrations of C6-Ceramide. FIG. 4 depicts cell viability (as a percentage of control) after treatment for 72 hours with varying concentrations of C6-Ceramide-Rubusoside. FIG. 5 depicts cell viability (as a percentage of control) after treatment for 72 hours with varying concentrations of Rubusoside.

[5] = test system: protein phosphatase 1 (PP1); assay: PP1 activity in NCI/ADR-RES cells; format: cell-based, human
Experimental: Cer can modulate gene expression, not only by activating transcription, but also by determining protein isoform. […] We assessed the roles of protein phosphatase 1 (PP1) and serine/arginine-rich splicing-factor 1 SRSF1 in Cer-induced wt p53 restoration via PP1 and SRSF1 in NCI/ADR-RES human ovarian cancer cells. […] Cells were pretreated with CalA (5 nM) for 4 hr, and then with either MBO-asGCS (MBO-as, 100 nM) or C6-Cer (2.5 μM) for 72 hr. FIG. 2 depicts PP1 activity in NCI/ADR-RES cells with various treatments. […] These increases were correlated with increases in wt p53 mRNA (exon 5) and pp53 (as assessed by RT-PCR amplification, data not shown).

[6] = test system: HTZ SW48/TP53+/− and parental SW48 (wt p53) cells; assay: Sensitivity of SW48 cells to Cers; format: cell-based, human; conditions: both cell lines, data not shown
[7] = set by WHO expert panel (2005); cited from earlier work
[8] = Preliminary oral toxicity study in normal mice; format: in vivo; conditions: up to 4 g daily per kg body mass, orally, two weeks
Experimental: (§1) Rubusoside (RUB) is a steviol glycoside. Steviol glycosides, extracted from the leaves of various plants, are often used as natural food sweeteners. […] Rubusoside is generally recognized as safe (GRAS) as a food additive for the general public according to the World Health Organization (WHO) (2005). A WHO expert panel has set 760 mg/kg/day RUB as the no-observed-effect level (NOEL) (2005). Thus there is ample tolerance for avoiding toxicity when rubusoside is employed in the present invention.

[9] = WHO intake limits (ADI, NOEL); conditions: converted from the steviol ADI
Experimental: as §1

CCCCCCCCCCCCC/C=C/[C@@H](O)[C@H](CO)NC(=O)CCCCC [C6-Cer, C6-Ceramide]
restoration of p53 activity ([1]; exogenous, Liu et al., 2011): restored p53 activity | protein level of Bax in the small intestine [2]: significantly increased | protein level of p53 in the small intestine [2]: significantly increased | IC50 [3]: 0.9 µM | IC50 ([4]; OVCAR3 cells, 72 hours): 12.5 µM | resistance of OVCAR3 relative to A2780 cells ([4]; ratio of IC50 values): 12 times | PP1 activity ([5]; MBO-asGCS 100 nM or C6-Cer 2.5 μM, 72 hr): significantly increased

CCCCCCCCCCCCC/C=C/[C@@H](O)[C@H](CO)NC(=O)CCCCCCCCCCCCCCCCC [C18-Cer]
relative sensitivity of cells to Cers [6]: more sensitive to C18-Cer than C6-Cer

CCCC[C@@H](C)[C@@H](OC(=O)C[C@@H](CC(=O)O)C(=O)O)[C@H](C[C@@H](C)C[C@H](O)CCCC[C@@H](O)C[C@H](O)[C@H](C)N)OC(=O)C[C@@H](CC(=O)O)C(=O)O [Fumonisin B1]
effect on p53 restoration by MBO-asGCS ([1]; inhibitor of Cer synthase): inhibited p53 restoration

C=C1C[C@@]23CC[C@H]4[C@@](C)(CCC[C@@]4(C)C(=O)O[C@@H]4O[C@H](CO)[C@@H](O)[C@H](O)[C@H]4O)[C@@H]2CC[C@]1(O[C@@H]1O[C@H](CO)[C@@H](O)[C@H](O)[C@H]1O)C3 [Rubusoside, rubusoside]
no-observed-effect level (NOEL) [7]: 760 mg/kg/day | cytotoxicity ([3]; any concentration tested up to 15 μM): no cytotoxicity | cytotoxicity ([4]; OVCAR-3 cells, any concentration tested up to 15 μM, 72 hours): no cytotoxicity | clinical signs of toxicity [8]: did not cause any clinical signs of toxicity | Accepted Daily Intake (ADI), roughly comparable amount [9]: 8 to 12 mg/kg/day

COC[C@@H]([C@H](O)[C@H](O)C(=O)NCC[C@H](C)c1nc(/C=C/C[C@@H]2O[C@]3(C[C@@H](O)[C@@H]2C)O[C@H]([C@H](C[C@H](O)[C@H](C)[C@H](O)[C@H](C)/C=C(C)/C(C)=C/C=C/C(C)=C\C#N)OC)[C@H](OP(=O)(O)O)C3(C)C)co1)N(C)C [calyculin A]
effect on PP1 activation by MBO-asGCS and C6-Cer [5]: abolished these effects
